Test results from publication PMC9267059, “Selective Inhibition of Murine Cytomegalovirus Viral Gene Expression by the Antiviral Peptide TAT-I24” (International Journal of Molecular Sciences, 2022).

Assays:
double-stranded DNA [1] = test: DNA binding assay (fluorescence reduction of SYBR Gold-stained plasmid DNA); settings: three independent experiments performed in duplicates
Experimental: Binding of peptides to double-stranded DNA was determined by reduction of fluorescence from SYBR® Gold-stained plasmid DNA as described previously.

MCMV [2] = test: Luciferase assay of MCMV replication (strain delm157-luc rep) in NIH/3T3 cells; type: cell-based, murine cytomegalovirus; settings: NIH/3T3 cells infected with MCMV, 72 h post-infection, at the concentrations tested, three independent experiments in duplicates
Experimental: NIH/3T3 cells were seeded at a density of 2 × 10^4 cells/well of a 96-well plate and allowed to attach overnight. On the next day, cells were treated with various concentrations of peptides, or cidofovir either alone or in combination with increasing concentrations of TAT-I24 and infected with MCMV strain delm157-luc rep with centrifugal enhancement twice at 800× g for 15 min. After 72 h, cells were lysed and luciferase measured using luciferase assay system (Promega; Mannheim, Germany) using a GloMax Multi instrument (Promega; Mannheim, Germany).
Curve fittings and statistics were calculated using GraphPad Prism 8 (GraphPad Software, San Diego, CA, USA). Bliss synergy scores were calculated using SynergyFinder 2.0 software (https://synergyfinder.fimm.fi (accessed on 25 June 2022)).

double-stranded DNA [3] = settings: cited from earlier work
Experimental: To determine whether reduction of host-gene expression early after MCMV infection is related to the ability of the peptide to bind DNA, variants of TAT-I24 were generated with modifications of the TAT fusion partner (Figure 5A). The peptides were tested for their potency in inhibiting MCMV replication and their binding to DNA. […] Inhibition is independent of whether these are immediate-early, early or late genes, as they were all reduced to a similar extent, thereby excluding a specific effect of the peptide on a particular viral gene.

[4] = test system: host-cell transcripts in NIH/3T3 cells infected with UV-inactivated MCMV; test: Host-cell transcript levels in cells infected with UV-irradiated MCMV; settings: UV-inactivated MCMV MOI 2.5, 10 µM, 2 h post-infection, three independent experiments
NIH/3T3 cells [5] = test: Cell viability assay (Cell Titer Glo 2.0); type: cell-based; settings: 10 µM, 48 h, Cell Titer Glo 2.0 luminescence, eight replicates per group
Experimental: NIH/3T3 cells were grown in CO2-independent medium supplemented with 10% fetal calf serum, 2 mM glutamine and 1% antibiotic-antimycotic (ThermoFisher; Darmstadt, Germany) and cultivated in a humidified atmosphere at 37 °C and passaged once a week. For determination of cell viability, NIH/3T3 cells were seeded at a density of 2 × 10^4 cells/well of a 96-well plate and treated with vehicle (DMSO) or 10 µM TAT-I24. After 48 h, cells were lysed using Cell Titer Glo 2.0 reagent (Promega; Mannheim, Germany) and luminescence recorded using a GloMax Multi instrument (Promega; Mannheim, Germany).

BrdU-labelled MCMV DNA = test: Staining of BrdU-labelled MCMV DNA in NIH/3T3 cells; type: cell-based, murine cytomegalovirus
Experimental: When infection of cells is performed with MCMV labelled with bromodeoxyuridine (BrdU), a clear reduction in BrdU-labelled genomes in TAT-I24-treated cells can be observed. It was speculated that this was due to the interaction of the peptide with the viral DNA, leading to the prevention of BrdU-antibody binding. This was further supported by the observation that the incubation of cells with TAT-I24 after fixation and permeabilization led to an impairment of BrdU-staining. As additional support for this concept, BrdU-labelled MCMV was adsorbed to NIH/3T3 cells at 4 °C in the absence or presence of 10 µM TAT-I24. Cells were then washed with ice-cold medium followed by transfer to 37 °C and fixation and permeabilization 30 min post-cold release. In one setting, cells were additionally treated with pepsin for 20 min at 37 °C to degrade the peptide.
NIH/3T3 cells were seeded at a density of 4 × 10^4 cells/well into ibiTreat eight-well chambers (ibidi, Gräfelfing, Germany). Bromodeoxyuridine (BrdU)-labelled virus was adsorbed to cells in the absence or presence of 10 µM TAT-I24 as described before. Pepsin treatment was performed by incubation of cells after fixation, permeabilization and denaturation with Pepsin Reagent, Ready to Use, Antigen Retriever (Merck; Schnelldorf, Germany) for 20 min. Cells were then washed twice with 1xTBE followed by three washes with PBS. […]

[6] = test system: host-cell transcripts in NIH/3T3 cells infected with MCMV; test: Host-cell transcript levels by quantitative PCR in MCMV-infected NIH/3T3 cells; type: cell-based; settings: for Ccl5 expression, comparison of peptides / Ccl7 expression, comparison of peptides / Ifit1 expression, comparison of peptides: MCMV MOI 1, 2 h post-infection, four independent experiments
MCMV [7] = test: Crystal violet staining of MCMV-infected NIH/3T3 cells (cytopathic effects); type: cell-based, murine cytomegalovirus
Experimental: This strain was also used in the present investigation. […] However, with increasing concentrations of TAT-I24, the cytopathic effects caused by the virus infection were inhibited (Figure 1A). […] For all further investigations, 10 µM of TAT-I24 was therefore chosen to ensure efficient inhibition of MCMV infection.
NIH/3T3 cells were seeded at a density of 2 × 10^4 cells/well of a 96-well plate and allowed to attach overnight. On the next day, cells were treated with increasing concentrations of TAT-I24 and infected with MCMV strain delm157-luc rep with centrifugal enhancement twice at 800× g for 15 min. After 48 h, cells were fixed with 4% formaldehyde and stained with 1% crystal violet solution for 30 min at room temperature followed by three times washing with water. Microscopic examination was performed using a Live Cell Video Microscope (Leica Microsystems; Wetzlar, Germany).

NIH/3T3 cells [8] = settings: 20 µM; cited from earlier work
Source text: This strain was also used in the present investigation. […] However, with increasing concentrations of TAT-I24, the cytopathic effects caused by the virus infection were inhibited (Figure 1A).

[9] = test system: respiratory syncytial virus (RSV); settings: cited from earlier work
Source text: (§1) We have described the novel antiviral peptide TAT-I24, a fusion of the 9-mer peptide I24 and the TAT peptide, which exerts broad-spectrum activity against several double-stranded DNA viruses. […] The antiv ...

some adenoviruses = settings: cited from earlier work
Source text: as §1

[10] = test system: human cytomegalovirus (CMV); settings: cited from earlier work
Source text: as §1

SV40 polyomavirus = settings: cited from earlier work
Source text: as §1

vaccinia virus = settings: cited from earlier work
Source text: as §1

[11] = test system: non-replicating baculovirus; settings: mammalian cells; cited from earlier work
Source text: as §1

herpes simplex virus = settings: cited from earlier work
Source text: as §1

[12] = test system: human immunodeficiency virus-1 (HIV-1); settings: cited from earlier work
Source text: as §1

MCMV viral DNA = MCMV viral DNA determined by ie1 PCR from RNA extracts; type: cell-based, murine cytomegalovirus
Experimental: The levels of viral DNA in the RNA extracts were also determined by PCR using the ie1 primer pair. In peptide-treated cells, the amount of viral DNA was about 60% compared to untreated cells. The amount of viral DNA declined in both settings between 2 and 8 h. […] This is in accordance with our earlier study using detection of the luciferase gene of MCMV strain delm157-luc rep.

[13] = test system: mouse cytomegalovirus (CMV); settings: cited from earlier work
[14] = test system: MCMV viral gene expression; test: MCMV viral gene transcript levels by quantitative PCR relative to Gapdh; type: cell-based, murine cytomegalovirus; settings: for ie1 transcript levels, comparison of peptides: NIH/3T3, MCMV MOI 1, 2 h post-infection
Experimental: NIH/3T3 fibroblasts were infected with MCMV expressing luciferase at low MOI (MOI 1) with the aid of centrifugal enhancement. Infections were performed either in the absence or presence of 10 µM TAT-I24. Cells were lysed after 30 min or 2-, 4-, 8- and 24-h post-infection. Total RNA was isolated and treated with DNase I to remove viral DNA before synthesis of the cDNA. Levels of viral transcripts were then analyzed by quantitative PCR and normalized to mRNA levels of the glyceraldehyde-3-phosphate dehydrogenase (Gapdh) housekeeping gene.
NIH/3T3 cells were seeded at a density of 8 × 10^4 cells/well of a 24-well plate and allowed to attach overnight. On the next day, MCMV strain delm157-luc rep was adsorbed to cells (MOI 1) in the absence or presence of 10 µM TAT-I24 and centrifuged twice at 800× g for 15 min. Cells were then kept at 37 °C and lysed after the indicated time-points.

[15] = MCMV MOI 1, 10 µM, 2 h post-infection
[16] = MCMV MOI 1, 10 µM, 4 h post-infection
[17] = MOI comparison experiment, MOI 1 with 10 µM, 2 h post-infection, two independent experiments

In the case of “RRRPPQCLAFYACFC [TAT-M24, six C-terminal residues of the TAT peptide fused to I24]”, the “DNA binding (fluorescence reduction of SYBR Gold-stained plasmid DNA)” value (double-stranded DNA [1]) was “reduced DNA binding” and the “antiviral activity (luciferase reporter gene expression)” value (MCMV [2]) was “lack of antiviral activity”.

In the case of CLAFYACFC [I24], the “binding to DNA” value (double-stranded DNA [3]) is given as “also binds DNA”.

In the case of “GRKKRRQRRRPPQCLAFYACFC [TAT-I24, antiviral peptide, a fusion of the 9-mer peptide I24 and the TAT peptide]”, the Ccl5 transcript levels [4] was “significantly reduced”, the Ccl7 transcript levels [4] was “significantly reduced” and the Cxcl10 transcript levels [4] was “significantly reduced”. The “cytotoxic effect (cell viability assay)” value (NIH/3T3 cells [5]) was “does not exert any cytotoxic effect”, the “BrdU-labelled genomes seen in cells” value (BrdU-labelled MCMV DNA; 10 µM during adsorption at 4 °C, 30 min post-cold release, no pepsin) was “almost no BrdU-labelled genomes” and the “BrdU-antibody staining after post-fixation pepsin treatment” value (BrdU-labelled MCMV DNA; 10 µM during adsorption, pepsin 20 min at 37 °C after fixation and permeabilization) was “clear appearance of a punctate pattern”. For the same sequence, the Ccl5 transcript levels ([6]; MCMV MOI 1, 10 µM) was “reduction”, the “Gadd45a mRNA levels, untreated vs peptide-treated cells” value ([6]; MCMV MOI 1, 10 µM) was “no difference” and the “Herpud1 transcript levels, untreated vs peptide-treated cells” value ([6]; MCMV MOI 1, 10 µM) was “no differences”. The Top2a transcript levels ([6]; MCMV MOI 1, 10 µM) was “no significant effect”, the Ccl7 transcript levels [6, 15] was “reduced” and the Cxcl10 transcript levels [6, 15] was “reduced”. The Ifit1 transcript levels [6, 15] was “significantly reduced”, the Nfkbia transcript levels [6, 15] was “reduced” and the Ccl7 transcript levels [6, 16] was “started to increase”. The Cxcl10 transcript levels [6, 16] was “started to increase”, the “Nfkbia mRNA levels” value [6, 16] was “comparable between untreated and peptide-treated cells” and the “Ifit1 mRNA levels” value ([6]; MCMV MOI 1, 10 µM, after 4 h) was “also increased in the presence of the peptide”. The “Ccl5 expression, comparison of peptides” value [6] was “significant reduction”, the “Ccl7 expression, comparison of peptides” value [6] was “significant reduction” and the “Ifit1 expression, comparison of peptides” value [6] was “significant reduction”. The “binding to DNA” value (double-stranded DNA [3]) was “binds DNA with high affinity”, the “effect on cell attachment and morphology” value (MCMV [7]; 20 µM) was “some effect on cell attachment and morphology” and the “cytopathic effects caused by the virus infection” value (MCMV [7]; MCMV MOI 1, 48 h post-infection, increasing concentrations of TAT-I24, crystal violet staining) was “inhibited”. The cell viability (NIH/3T3 cells [8]) was “does not affect cell viability”, the “inhibition of RSV” value [9] was “Partial inhibition” and the “replication of some adenoviruses” value (some adenoviruses) was “inhibit replication”. For the same sequence, the “replication of human cytomegalovirus” value [10] was “inhibit replication”, the “replication of SV40 polyomavirus” value (SV40 polyomavirus) was “inhibit replication” and the “replication of vaccinia virus” value (vaccinia virus) was “inhibit replication”. The “reporter gene expression from a non-replicating baculovirus” value [11] was “reduction of reporter gene expression”, the “replication of herpes simplex virus” value (herpes simplex virus) was “inhibit replication” and the “inhibition of HIV-1” value [12] was “Partial inhibition”. The “viral DNA (genome copies by ie1 PCR)” value (MCMV viral DNA; [17]) was “not reflected at the level of viral DNA”, the “viral DNA after 24 h” value (MCMV viral DNA; NIH/3T3, MCMV MOI 1, 10 µM, 24 h post-infection) was “remained at background levels” and the “amount of viral DNA compared to untreated cells” value (MCMV viral DNA; NIH/3T3, MCMV MOI 1, 10 µM, ie1 PCR, three independent experiments) was “about 60%”. For the same sequence, the “replication of mouse cytomegalovirus (MCMV)” value [13] was “inhibit replication”, the “reduction of ie1 transcript levels” value [14, 17] was 90% and the “expression of spliced late gene m129/131” value ([14]; NIH/3T3, MCMV MOI 1, 10 µM) was “reduced”. For the same sequence, the “gene expression of M94 (late gene)” value ([14]; NIH/3T3, MCMV MOI 1, 10 µM) was “strongly inhibited”, the “levels of m152 transcripts (early gene)” value ([14]; NIH/3T3, MCMV MOI 1, 10 µM) was “strongly reduced” and the “m169 mRNA levels (early gene)” value ([14]; NIH/3T3, MCMV MOI 1, 10 µM) was “strongly reduced”. The “reduction of ie1 transcript levels compared to untreated cells” value ([14]; NIH/3T3, MCMV MOI 1, 10 µM, 2 h post-infection, four independent experiments) was “more than 90%” and the “ie1 transcript levels, comparison of peptides” value ([14]; four independent experiments) was “significant inhibitory effect”.

In the case of “RRRCLAFYACFC [TAT-M25, three amino-terminal arginine residues fused to I24]”, the “DNA binding (fluorescence reduction of SYBR Gold-stained plasmid DNA)” value (double-stranded DNA [1]) was “reduced DNA binding” and the “antiviral activity (luciferase reporter gene expression)” value (MCMV [2]) was “lack of antiviral activity”.

For GRKKRRQRRRPPQ [TAT, reference compound], the “DNA binding (fluorescence reduction of SYBR Gold-stained plasmid DNA)” value (double-stranded DNA [1]) is given as “partial fluorescence reduction”, the “replication of mouse cytomegalovirus (MCMV)” value [13] is given as “partial inhibitory effect” and the “ie1 transcript levels, comparison of peptides” value ([14]; four independent experiments) is given as “partial reduction”.

In the case of “GRKKRRCLAFYACFC [TAT-M26, six N-terminal amino-acid residues of the TAT peptide fused to I24]”, the “Ccl5 expression, comparison of peptides” value [6] was “significant reduction”, the “Ccl7 expression, comparison of peptides” value [6] was “significant reduction” and the “Ifit1 expression, comparison of peptides” value [6] was “significant reduction”. For the same sequence, the “ie1 transcript levels, comparison of peptides” value ([14]; four independent experiments) was “significant inhibitory effect”.
